Numbered stars: 1 amine (or outer) side, 2 acyl side, 3 side chain; on linkers, the order of the positions; unused ones are H or OH. Square brackets hold non-standard residues; d marks the D form. Peptide text beside a SMILES is read from it. * marks the point of attachment. Isobutyloxycarbonyl = CC(C)COC(=O)*; X1 = CCCC(N[*:1])C(=O)C(=O)[*:2] Where only a bound is given, the exact number is not on record here.

For the assay, the target named is Genome polyprotein (Hepatitis C virus genotype 1a (isolate H77), UniProt P27958). Briefly: Continuous Spectrophotometric Assay. As to conditions: pH 6.5; 30 °C. How it is done: Proteolytic cleavage of the ester linkage between the Nva (L-norvaline) and the chromophore (PAP) was monitored for change in absorbance at 370 nm. Initial velocities were determined using linear regression and kinetic constants were obtained by fitting the data to the Michaelis-Menten equation.
Chain of Genome polyprotein (P27958 1027-1657 limits assumed): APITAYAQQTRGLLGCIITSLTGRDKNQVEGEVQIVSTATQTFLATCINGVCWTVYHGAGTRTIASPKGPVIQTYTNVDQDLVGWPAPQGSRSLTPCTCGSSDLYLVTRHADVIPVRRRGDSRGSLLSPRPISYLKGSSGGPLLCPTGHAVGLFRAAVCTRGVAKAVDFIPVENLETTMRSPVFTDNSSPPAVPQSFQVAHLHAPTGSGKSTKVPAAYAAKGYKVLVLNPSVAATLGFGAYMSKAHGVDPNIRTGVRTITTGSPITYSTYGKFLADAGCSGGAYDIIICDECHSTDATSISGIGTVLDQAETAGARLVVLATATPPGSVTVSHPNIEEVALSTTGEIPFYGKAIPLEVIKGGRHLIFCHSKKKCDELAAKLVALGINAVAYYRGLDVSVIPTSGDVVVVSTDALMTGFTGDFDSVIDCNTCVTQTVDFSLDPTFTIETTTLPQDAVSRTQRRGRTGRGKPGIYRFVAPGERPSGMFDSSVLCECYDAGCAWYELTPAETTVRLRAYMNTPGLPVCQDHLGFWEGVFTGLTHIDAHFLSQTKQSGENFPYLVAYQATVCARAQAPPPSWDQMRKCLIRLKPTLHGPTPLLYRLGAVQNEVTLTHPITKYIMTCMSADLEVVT

The term Ki denotes the dissociation constant of the complex between target and ligand, obtained from inhibition or displacement. Low values mean a stronger hold on the target, high ones a looser hold on the target. In turn, `CCCC(NC(=O)[C@@H]1CCCN1C(=O)[C@@H](NC(=O)OCC(C)C)C(C)C)C(=O)C(=O)NCC(=O)N[C@@H](CC(=O)O)C(=O)O` (stereo partly drawn) [1,4-disodium (2S)-2-[2-(3-{[(2S)-1-[(2S)-3-methyl-2-{[(2-methylpropoxy)carbonyl]amino}butanoyl]pyrrolidin-2-yl]formamido}-2-oxohexanamido)acetamido]butanedioate] (Isobutyloxycarbonyl-VP[X1]GD-OH) registered a Ki above 100 µM.
On to `CCCC(NC(=O)[C@@H]1CCCN1C(=O)[C@@H](NC(=O)OCC(C)C)C(C)C)C(=O)C(=O)NCC(=O)N[C@@H](CCC(=O)O)C(=O)O` (stereo partly drawn) [1,5-dilithio (2S)-2-[2-(3-{[(2S)-1-[(2S)-3-methyl-2-{[(2-methylpropoxy)carbonyl]amino}butanoyl]pyrrolidin-2-yl]formamido}-2-oxohexanamido)acetamido]pentanedioate] (Isobutyloxycarbonyl-VP[X1]GE-OH), for which the Ki was above 100 µM.

Source of the values: BindingDB's records for doi:10.1016/j.bmcl.2005.06.091 (Schering-Plough Research Institute, 2005).
